Assay results: patent US11173160B2 (UNIVERSITY OF PITTSBURGH—OF THE COMMONWEALTH SYSTEM OF …, priority 2019, dated 2021)
Read-outs that look alike come from different tables or passages of the source.

Columns and labels:
ZAP-70 = ZAP-70 (Homo sapiens, UniProt P43403); settings: cited from earlier work
CDK3 = CDK3 (Homo sapiens, UniProt Q00526); settings: Source Millipore; 10-point titration in duplicates, done once; cited from earlier work
MYCN in DIPG-13p cells = test: MYCN transcript (qRT-PCR) and protein (Western blot); format: cell-based, human; settings: DIPG-13p cells (MYCN amplification)
Description: FIG. 14E provides Western blot confirming MYCN protein levels decrease in DIPG-13p cells from FIG. 14E.
Total RNA isolation was performed using an RNA extraction kit according to the manufacturer's instructions (RNeasy kit, Qiagen). cDNA was synthesized from 100 ng of total RNA using the Quantitect RT kit which included DNAse treatment (Qiagen). Quantitative real-time PCR was performed on 10 ng of cDNA template in a final volume of 20 μl using the Chromo4 Real Time PCR detector (MJ Research, a Division of Bio-Rad Laboratories Ltd) using SYBR green fluorescence. RT-PCR data was analyzed using Opticon Monitor 3.1.3 analysis software. Data analysis was done using the delta CT method with HPRT1 as a reference/control gene. Specific Primers are available in Table 4.

MKK6 = MKK6 (Homo sapiens, UniProt P52564); settings: cited from earlier work
MKK6, sequence (P52564 whole entry): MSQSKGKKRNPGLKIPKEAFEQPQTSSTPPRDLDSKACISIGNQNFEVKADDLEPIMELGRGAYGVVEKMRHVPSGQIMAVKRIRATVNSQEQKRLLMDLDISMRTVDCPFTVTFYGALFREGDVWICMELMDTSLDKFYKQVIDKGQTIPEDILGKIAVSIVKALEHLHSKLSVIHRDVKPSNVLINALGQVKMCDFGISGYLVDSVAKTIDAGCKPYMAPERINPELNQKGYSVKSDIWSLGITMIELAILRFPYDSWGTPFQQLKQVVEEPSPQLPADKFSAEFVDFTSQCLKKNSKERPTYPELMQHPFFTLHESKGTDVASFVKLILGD

InsR = InsR (Homo sapiens, UniProt P06213); settings: cited from earlier work
CDK4 = CDK4 (Homo sapiens, UniProt P11802); settings: cited from earlier work
Pim-3 = Pim-3 (Homo sapiens, UniProt Q86V86); settings: cited from earlier work
CYP3A4 = CYP3A4 (Homo sapiens, UniProt P08684); settings: cited from earlier work
CYP3A4, sequence (P08684 whole entry): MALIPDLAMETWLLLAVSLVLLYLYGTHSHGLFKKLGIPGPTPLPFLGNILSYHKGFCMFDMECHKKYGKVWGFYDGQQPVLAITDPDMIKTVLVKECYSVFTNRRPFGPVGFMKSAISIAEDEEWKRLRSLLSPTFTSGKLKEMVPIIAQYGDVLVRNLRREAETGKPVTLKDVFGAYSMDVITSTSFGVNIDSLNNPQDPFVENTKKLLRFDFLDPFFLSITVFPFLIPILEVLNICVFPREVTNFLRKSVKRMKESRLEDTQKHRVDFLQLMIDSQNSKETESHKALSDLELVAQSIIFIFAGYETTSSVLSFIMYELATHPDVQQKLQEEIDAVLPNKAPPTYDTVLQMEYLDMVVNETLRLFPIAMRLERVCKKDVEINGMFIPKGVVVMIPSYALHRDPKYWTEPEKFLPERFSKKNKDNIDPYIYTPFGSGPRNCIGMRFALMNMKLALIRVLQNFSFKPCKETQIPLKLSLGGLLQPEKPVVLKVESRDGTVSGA

TYK2 = TYK2 (Homo sapiens, UniProt P29597); settings: Source Invitrogen; 10-point titration in duplicates, done once; cited from earlier work
TYK2, sequence (P29597 whole entry): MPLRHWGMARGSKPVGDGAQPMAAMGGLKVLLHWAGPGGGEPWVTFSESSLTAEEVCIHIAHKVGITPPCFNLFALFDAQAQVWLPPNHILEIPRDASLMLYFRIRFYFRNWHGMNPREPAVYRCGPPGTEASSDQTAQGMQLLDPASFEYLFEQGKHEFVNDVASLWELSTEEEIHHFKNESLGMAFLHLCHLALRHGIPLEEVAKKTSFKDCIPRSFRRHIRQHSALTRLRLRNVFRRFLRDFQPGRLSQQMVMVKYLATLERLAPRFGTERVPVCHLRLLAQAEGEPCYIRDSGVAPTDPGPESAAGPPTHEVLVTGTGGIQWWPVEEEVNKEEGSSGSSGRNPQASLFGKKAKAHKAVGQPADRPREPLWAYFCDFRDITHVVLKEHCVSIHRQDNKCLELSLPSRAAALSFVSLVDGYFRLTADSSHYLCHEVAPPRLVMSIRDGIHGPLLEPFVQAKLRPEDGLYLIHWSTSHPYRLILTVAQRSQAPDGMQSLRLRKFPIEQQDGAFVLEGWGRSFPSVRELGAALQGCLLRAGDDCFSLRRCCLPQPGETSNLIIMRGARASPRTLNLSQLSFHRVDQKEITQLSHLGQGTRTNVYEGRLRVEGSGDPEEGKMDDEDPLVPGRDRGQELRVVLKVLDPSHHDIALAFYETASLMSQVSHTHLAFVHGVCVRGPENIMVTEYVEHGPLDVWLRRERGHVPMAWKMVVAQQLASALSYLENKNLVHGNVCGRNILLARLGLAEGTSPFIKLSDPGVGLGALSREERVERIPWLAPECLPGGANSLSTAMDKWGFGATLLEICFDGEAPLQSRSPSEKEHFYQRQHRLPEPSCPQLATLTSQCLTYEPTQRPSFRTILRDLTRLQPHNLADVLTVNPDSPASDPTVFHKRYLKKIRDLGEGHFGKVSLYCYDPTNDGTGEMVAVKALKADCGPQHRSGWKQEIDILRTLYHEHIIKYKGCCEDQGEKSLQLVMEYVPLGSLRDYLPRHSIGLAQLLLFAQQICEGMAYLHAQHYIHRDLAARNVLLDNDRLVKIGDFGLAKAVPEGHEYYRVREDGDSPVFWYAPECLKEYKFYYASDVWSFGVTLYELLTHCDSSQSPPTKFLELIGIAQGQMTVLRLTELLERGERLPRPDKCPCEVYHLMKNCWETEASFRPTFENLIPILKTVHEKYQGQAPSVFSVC

TYRO3 = TYRO3 (Homo sapiens, UniProt Q06418); settings: Source Invitrogen; 10-point titration in duplicates, done once; cited from earlier work
PKBα = PKBα (Homo sapiens, UniProt P31749); settings: cited from earlier work
ASK1 = ASK1 (Homo sapiens, UniProt Q99683); settings: cited from earlier work
ASK1, sequence (Q99683 whole entry): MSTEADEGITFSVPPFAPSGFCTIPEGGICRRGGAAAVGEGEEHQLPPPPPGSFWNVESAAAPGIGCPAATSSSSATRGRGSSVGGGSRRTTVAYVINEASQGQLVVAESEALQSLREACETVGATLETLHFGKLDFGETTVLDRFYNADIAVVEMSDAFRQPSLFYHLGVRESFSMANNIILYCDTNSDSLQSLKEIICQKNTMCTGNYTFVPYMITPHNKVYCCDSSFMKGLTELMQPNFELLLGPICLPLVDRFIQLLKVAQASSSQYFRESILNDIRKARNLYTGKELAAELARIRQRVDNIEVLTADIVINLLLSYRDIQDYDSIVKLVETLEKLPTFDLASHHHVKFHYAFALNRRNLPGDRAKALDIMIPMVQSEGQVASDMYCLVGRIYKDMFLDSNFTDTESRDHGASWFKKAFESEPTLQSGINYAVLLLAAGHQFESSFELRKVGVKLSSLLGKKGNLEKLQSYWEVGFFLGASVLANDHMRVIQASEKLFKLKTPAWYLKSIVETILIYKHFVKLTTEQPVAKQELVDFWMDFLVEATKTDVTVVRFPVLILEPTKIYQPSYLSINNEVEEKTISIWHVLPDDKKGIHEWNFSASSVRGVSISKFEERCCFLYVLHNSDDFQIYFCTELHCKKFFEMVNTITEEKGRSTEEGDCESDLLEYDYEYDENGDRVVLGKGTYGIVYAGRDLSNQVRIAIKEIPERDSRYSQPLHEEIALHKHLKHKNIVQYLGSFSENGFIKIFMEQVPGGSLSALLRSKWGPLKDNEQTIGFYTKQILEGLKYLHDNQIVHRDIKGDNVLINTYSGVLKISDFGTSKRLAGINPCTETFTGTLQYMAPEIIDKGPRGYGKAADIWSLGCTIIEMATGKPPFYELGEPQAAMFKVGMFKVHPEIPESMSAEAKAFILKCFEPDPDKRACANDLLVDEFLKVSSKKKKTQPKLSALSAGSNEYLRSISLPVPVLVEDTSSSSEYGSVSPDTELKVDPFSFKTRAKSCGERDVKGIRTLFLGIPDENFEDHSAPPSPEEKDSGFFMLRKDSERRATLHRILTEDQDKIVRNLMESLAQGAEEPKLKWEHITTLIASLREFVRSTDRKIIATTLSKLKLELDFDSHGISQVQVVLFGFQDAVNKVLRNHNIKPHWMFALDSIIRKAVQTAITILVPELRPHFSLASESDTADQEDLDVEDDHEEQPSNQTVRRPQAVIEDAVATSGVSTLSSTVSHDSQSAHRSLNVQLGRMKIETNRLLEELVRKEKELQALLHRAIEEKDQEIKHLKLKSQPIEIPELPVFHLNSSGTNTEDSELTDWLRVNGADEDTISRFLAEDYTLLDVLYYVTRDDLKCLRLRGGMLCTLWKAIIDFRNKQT

MEK1 = MEK1 (Homo sapiens, UniProt Q02750); settings: cited from earlier work
MEK1, sequence (Q02750 whole entry): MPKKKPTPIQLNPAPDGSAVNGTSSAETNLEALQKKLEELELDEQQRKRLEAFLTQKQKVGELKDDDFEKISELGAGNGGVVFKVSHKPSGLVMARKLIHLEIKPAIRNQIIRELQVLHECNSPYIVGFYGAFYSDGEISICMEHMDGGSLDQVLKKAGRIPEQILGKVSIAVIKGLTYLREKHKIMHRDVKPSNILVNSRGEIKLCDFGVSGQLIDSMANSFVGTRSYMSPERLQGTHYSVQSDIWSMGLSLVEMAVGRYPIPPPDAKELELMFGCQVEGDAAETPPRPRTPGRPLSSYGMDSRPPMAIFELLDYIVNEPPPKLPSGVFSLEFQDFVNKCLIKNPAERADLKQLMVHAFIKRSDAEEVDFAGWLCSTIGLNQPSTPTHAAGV

JAK2 = JAK2 (Homo sapiens, UniProt O60674); settings: Source Invitrogen; 10-point titration in duplicates, done once; cited from earlier work
[1] = tissue and plasma distribution after a single PO dose; format: in vivo, female nude mice
Description: Three mice were sacrificed at a time 10 min, 30 min, 1, 2, 4, 8, and 24 hrs after dosing and pharmacokinetic levels were assessed.

IKK-β = IKK-β (Homo sapiens, UniProt O14920); settings: cited from earlier work
DIPG007 = test: IC50 of two forms of TG02 in DIPG cell lines in vitro; format: cell-based, human; settings: DIPG007 cell line; listed as TG02 obtained from Adastra Pharmaceuticals
Description: (§1) Direct cell counts were performed using the Countess II FL Automated Cell Counter (ThermoFisher Scientific). Alamar blue viability (ThermoFisher Scientific) and the 5-bromo-2′-deoxyuridine (BrdU) incorporated cell proliferation assay (Cell Signaling Technology Cat #6813) were performed using the manufacturer's standard protocol. EC50 curve analysis was performed using raw fluorescent Alamar blue values that were inputted into PRISM 7.0. Drug concentrations were log 10 transformed and values normalized to percent viability with respect to vehicle treated cells. EC50 values were interpolated from a log inhibitor vs. normalized response with variable slope using a least square fit model.

SF8628 = test: as above; format: cell-based, human; settings: SF8628 cell line; listed as TG02 obtained from Adastra Pharmaceuticals
Description: as §1

DIPG4 = test: as above; format: cell-based, human; settings: DIPG4 cell line; listed as TG02 obtained from Adastra Pharmaceuticals
Description: as §1

DIPG13p = test: as above; format: cell-based, human; settings: DIPG13p cell line; listed as TG02 obtained from Adastra Pharmaceuticals
Description: as §1

[2] = target: (Homo sapiens, UniProt O15264); settings: Source Invitrogen; 10-point titration in duplicates, done once; cited from earlier work
(Homo sapiens, UniProt O15264), sequence (O15264 whole entry): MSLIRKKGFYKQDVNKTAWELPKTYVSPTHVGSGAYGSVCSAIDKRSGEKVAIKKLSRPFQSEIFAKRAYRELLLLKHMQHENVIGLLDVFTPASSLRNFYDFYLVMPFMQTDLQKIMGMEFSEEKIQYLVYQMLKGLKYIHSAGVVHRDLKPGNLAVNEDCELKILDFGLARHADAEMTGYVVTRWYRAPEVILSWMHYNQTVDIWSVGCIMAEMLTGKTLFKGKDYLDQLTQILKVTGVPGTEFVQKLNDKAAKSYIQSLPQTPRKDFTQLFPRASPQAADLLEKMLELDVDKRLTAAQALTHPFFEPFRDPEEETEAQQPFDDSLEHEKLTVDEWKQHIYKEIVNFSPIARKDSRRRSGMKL

IGF-1R = IGF-1R (Homo sapiens, UniProt P08069); settings: cited from earlier work
TLK2 = TLK2 (Homo sapiens, UniProt Q86UE8); settings: cited from earlier work
TLK2, sequence (Q86UE8 whole entry, species assumed): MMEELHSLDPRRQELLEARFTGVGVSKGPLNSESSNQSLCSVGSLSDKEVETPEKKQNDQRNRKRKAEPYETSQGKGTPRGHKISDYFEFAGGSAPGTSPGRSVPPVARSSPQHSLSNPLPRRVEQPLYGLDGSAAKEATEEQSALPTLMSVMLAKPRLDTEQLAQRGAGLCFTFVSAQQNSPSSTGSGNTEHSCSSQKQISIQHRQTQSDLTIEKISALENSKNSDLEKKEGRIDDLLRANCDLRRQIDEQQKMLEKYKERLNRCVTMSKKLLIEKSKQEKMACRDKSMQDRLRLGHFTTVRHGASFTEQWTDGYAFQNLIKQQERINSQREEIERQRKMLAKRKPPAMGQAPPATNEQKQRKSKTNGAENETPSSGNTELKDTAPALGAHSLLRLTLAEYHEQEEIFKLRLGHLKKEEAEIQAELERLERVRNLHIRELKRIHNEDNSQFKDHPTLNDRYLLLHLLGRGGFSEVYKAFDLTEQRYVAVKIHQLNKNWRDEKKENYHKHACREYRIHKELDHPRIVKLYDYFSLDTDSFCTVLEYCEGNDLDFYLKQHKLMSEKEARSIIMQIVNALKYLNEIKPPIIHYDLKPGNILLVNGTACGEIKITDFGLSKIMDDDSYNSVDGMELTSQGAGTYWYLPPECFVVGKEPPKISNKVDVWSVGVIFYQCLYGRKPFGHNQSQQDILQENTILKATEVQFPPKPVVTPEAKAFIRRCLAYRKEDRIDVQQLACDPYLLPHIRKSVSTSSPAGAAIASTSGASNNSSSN

JNK1 = JNK1 (Homo sapiens, UniProt P45983); settings: cited from earlier work
PRAK = PRAK (Homo sapiens, UniProt Q8IW41); settings: cited from earlier work
PKA = PKA (Homo sapiens, UniProt P17612); settings: cited from earlier work
PAK3 = PAK3 (Homo sapiens, UniProt O75914); settings: cited from earlier work
PDK1 = PDK1 (Homo sapiens, UniProt O15530); settings: cited from earlier work
[3] = cited from earlier work
[4] = human pharmacokinetics of TG02 as a single agent
[5] = system: DIPG-IV cells expressing MYC S62D; test: EC50 of TG02 in DIPG-IV cells expressing MYC S62D; format: cell-based, human; settings: MYC S62D vs empty vector control
Description: as §1

[6] = cited from earlier work; remark: listed apart in the source

SMILES: CN1C/C=C/CCOc2cccc(c2)-c2ccnc(n2)Nc2cccc(c2)C1 [TG02, (16E)-14-methyl-20-oxa-5,7,14,27-tetraazatetracyclo[19.3.1.12,6.18,12]heptacosa-1(25),2(27),3,5,8(26),9,11,16,21,23-decaene]
- inhibition at 100 nm (ZAP-70): less than 50%
- IC50 (CDK3): 8 nM
- MYCN protein and transcript levels (MYCN in DIPG-13p cells): MYCN protein and transcriptional down-regulation
- inhibition at 100 nm (MKK6): less than 50%
- inhibition at 100 nm (InsR): less than 50%
- inhibition at 100 nm (CDK4): less than 50%
- inhibition at 100 nm (Pim-3): less than 50%
- substrate of CYP3A4 (CYP3A4): substrate
- IC50 (TYK2): 14 nM
- IC50 (TYRO3): 36 nM
- inhibition at 100 nm (PKBα): less than 50%
- inhibition at 100 nm (ASK1): less than 50%
- inhibition at 100 nm (MEK1): less than 50%
- IC50 (JAK2): 19 nM
- blood-brain barrier penetration ([1]; mouse, in vivo): blood-brain barrier penetrant
- Cmax in the brain compared to plasma ([1]; single PO dose of 75 mg/kg): at least twice as high
- exposure (AUC0-last) in the brain compared to plasma ([1]; single PO dose of 75 mg/kg): at least twice as high
- inhibition at 100 nm (IKK-β): less than 50%
- IC50 (DIPG007): 93 nM
- IC50 (SF8628): 70 nM
- IC50 (DIPG4): 60 nM
- IC50 (DIPG13p): 80 nM
- IC50 [2]: 56 nM
- inhibition at 100 nm (IGF-1R): less than 50%
- inhibition at 100 nm (TLK2): less than 50%
- inhibition at 100 nm (JNK1): less than 50%
- inhibition at 100 nm (PRAK): less than 50%
- inhibition at 100 nm (PKA): less than 50%
- inhibition at 100 nm (PAK3): less than 50%
- inhibition at 100 nm (PDK1): less than 50%
- inhibition at 100 nm [3]: less than 50%
- peak concentration in plasma ([4]; adults, single dose of 200 mg, equivalent): 11,000 nM
- Cmax in adults over in vitro IC50 in patient-derived DIPG cell lines ([4]; in vivo): ~2 logs
- resistance to TG02 [5]: promoted resistance to TG02
- peak concentration in plasma ([6]; adults, single dose of 200 mg): 4,000 ng/mL
- Cmax and AUC0-t dose dependence ([6]; doses between 10 and 200 mg): dose-proportional increase
- t1/2 ([6]; in vivo): approximately 18 hrs
